Laboratory results from the NIST ThermoML archive (doi:10.1021/je900596d).
± gives the expanded uncertainty stated by the source.

Settings: 362.9 K, Vibrating tube method

FC(F)=C(F)C(F)(F)F [hexafluoropropene]
Settings | mass density [kg/m3]
986.7 kPa, Fluid (supercritical or subcritical phases) | 55.35 ± 0.08
1010.4 kPa, Fluid (supercritical or subcritical phases) | 56.58 ± 0.09
1044 kPa, Fluid (supercritical or subcritical phases) | 59.01 ± 0.09
1060.4 kPa, Fluid (supercritical or subcritical phases) | 59.9 ± 0.09
1076.4 kPa, Fluid (supercritical or subcritical phases) | 61.11 ± 0.09
1097.9 kPa, Fluid (supercritical or subcritical phases) | 62.31 ± 0.09
1119.7 kPa, Fluid (supercritical or subcritical phases) | 63.86 ± 0.1
1141.5 kPa, Fluid (supercritical or subcritical phases) | 65.33 ± 0.1
1162.5 kPa, Fluid (supercritical or subcritical phases) | 66.89 ± 0.1
1202.5 kPa, Fluid (supercritical or subcritical phases) | 69.4 ± 0.1
1221.4 kPa, Fluid (supercritical or subcritical phases) | 70.92 ± 0.1
1239.6 kPa, Fluid (supercritical or subcritical phases) | 71.99 ± 0.11
1257.3 kPa, Fluid (supercritical or subcritical phases) | 73.4 ± 0.11
1274.3 kPa, Fluid (supercritical or subcritical phases) | 74.42 ± 0.11
1293.3 kPa, Fluid (supercritical or subcritical phases) | 76 ± 0.11
1312.3 kPa, Fluid (supercritical or subcritical phases) | 77.04 ± 0.11
1331.5 kPa, Fluid (supercritical or subcritical phases) | 78.67 ± 0.12
1349 kPa, Fluid (supercritical or subcritical phases) | 79.84 ± 0.12
1367.1 kPa, Fluid (supercritical or subcritical phases) | 81.15 ± 0.12
1388 kPa, Fluid (supercritical or subcritical phases) | 82.53 ± 0.12
1408.2 kPa, Fluid (supercritical or subcritical phases) | 83.98 ± 0.12
1429.7 kPa, Fluid (supercritical or subcritical phases) | 85.75 ± 0.13
1447.9 kPa, Fluid (supercritical or subcritical phases) | 86.99 ± 0.13
1484.9 kPa, Fluid (supercritical or subcritical phases) | 89.9 ± 0.13
1503.2 kPa, Fluid (supercritical or subcritical phases) | 91.22 ± 0.13
1521.3 kPa, Fluid (supercritical or subcritical phases) | 92.61 ± 0.14
1544.9 kPa, Fluid (supercritical or subcritical phases) | 94.44 ± 0.14
1567.8 kPa, Fluid (supercritical or subcritical phases) | 96.26 ± 0.14
1613.4 kPa, Fluid (supercritical or subcritical phases) | 99.81 ± 0.15
1634.9 kPa, Fluid (supercritical or subcritical phases) | 101.65 ± 0.15
1655.8 kPa, Fluid (supercritical or subcritical phases) | 103.37 ± 0.15
1676.7 kPa, Fluid (supercritical or subcritical phases) | 104.81 ± 0.15
1696.6 kPa, Fluid (supercritical or subcritical phases) | 106.47 ± 0.16
1716 kPa, Fluid (supercritical or subcritical phases) | 108.07 ± 0.16
1734.8 kPa, Fluid (supercritical or subcritical phases) | 109.59 ± 0.17
1753 kPa, Fluid (supercritical or subcritical phases) | 111.4 ± 0.17
1771.1 kPa, Fluid (supercritical or subcritical phases) | 112.78 ± 0.16
1788.6 kPa, Fluid (supercritical or subcritical phases) | 114.27 ± 0.17
1805.4 kPa, Fluid (supercritical or subcritical phases) | 115.72 ± 0.17
1838.2 kPa, Fluid (supercritical or subcritical phases) | 118.54 ± 0.18
1868.9 kPa, Fluid (supercritical or subcritical phases) | 121.28 ± 0.18
1898.3 kPa, Fluid (supercritical or subcritical phases) | 124.13 ± 0.19
1923.7 kPa, Fluid (supercritical or subcritical phases) | 126.25 ± 0.19
1953.6 kPa, Fluid (supercritical or subcritical phases) | 129.06 ± 0.2
1971.3 kPa, Fluid (supercritical or subcritical phases) | 130.89 ± 0.2
1988.2 kPa, Fluid (supercritical or subcritical phases) | 132.28 ± 0.2
2005 kPa, Fluid (supercritical or subcritical phases) | 133.86 ± 0.21
2021.3 kPa, Fluid (supercritical or subcritical phases) | 135.65 ± 0.21
2037.3 kPa, Fluid (supercritical or subcritical phases) | 137.17 ± 0.21
2066.9 kPa, Fluid (supercritical or subcritical phases) | 140.08 ± 0.21
2099 kPa, Fluid (supercritical or subcritical phases) | 143.21 ± 0.22
2115.6 kPa, Fluid (supercritical or subcritical phases) | 144.99 ± 0.22
2133.5 kPa, Fluid (supercritical or subcritical phases) | 146.69 ± 0.23
2152 kPa, Fluid (supercritical or subcritical phases) | 148.88 ± 0.24
2207.8 kPa, Fluid (supercritical or subcritical phases) | 154.82 ± 0.24
2239 kPa, Fluid (supercritical or subcritical phases) | 158.23 ± 0.25
2255.7 kPa, Fluid (supercritical or subcritical phases) | 160.15 ± 0.25
2279.2 kPa, Fluid (supercritical or subcritical phases) | 162.54 ± 0.26
2296 kPa, Fluid (supercritical or subcritical phases) | 164.49 ± 0.26
2320.6 kPa, Fluid (supercritical or subcritical phases) | 167.17 ± 0.27
2341.1 kPa, Fluid (supercritical or subcritical phases) | 169.73 ± 0.28
2363.6 kPa, Fluid (supercritical or subcritical phases) | 172.35 ± 0.29
2382.4 kPa, Fluid (supercritical or subcritical phases) | 174.89 ± 0.3
2399.2 kPa, Fluid (supercritical or subcritical phases) | 176.97 ± 0.29
2416.1 kPa, Fluid (supercritical or subcritical phases) | 178.92 ± 0.3
2454.2 kPa, Fluid (supercritical or subcritical phases) | 183.72 ± 0.31
2471.2 kPa, Fluid (supercritical or subcritical phases) | 185.86 ± 0.32
2493.7 kPa, Fluid (supercritical or subcritical phases) | 188.92 ± 0.33
2510.8 kPa, Fluid (supercritical or subcritical phases) | 191.35 ± 0.33
2532.7 kPa, Fluid (supercritical or subcritical phases) | 194.2 ± 0.34
2568.3 kPa, Fluid (supercritical or subcritical phases) | 199.28 ± 0.36
2584.5 kPa, Fluid (supercritical or subcritical phases) | 201.68 ± 0.36
2637.6 kPa, Fluid (supercritical or subcritical phases) | 209.57 ± 0.38
2655.8 kPa, Fluid (supercritical or subcritical phases) | 212.2 ± 0.39
2673.6 kPa, Fluid (supercritical or subcritical phases) | 215.1 ± 0.41
2690.3 kPa, Fluid (supercritical or subcritical phases) | 217.71 ± 0.42
2706.4 kPa, Fluid (supercritical or subcritical phases) | 220.44 ± 0.42
2736.2 kPa, Fluid (supercritical or subcritical phases) | 225.31 ± 0.44
2764.5 kPa, Fluid (supercritical or subcritical phases) | 230.31 ± 0.46
2781.5 kPa, Fluid (supercritical or subcritical phases) | 233.26 ± 0.48
2809.5 kPa, Fluid (supercritical or subcritical phases) | 238.5 ± 0.5
2870.6 kPa, Fluid (supercritical or subcritical phases) | 250.29 ± 0.55
2897.9 kPa, Fluid (supercritical or subcritical phases) | 256.08 ± 0.6
2916.5 kPa, Fluid (supercritical or subcritical phases) | 260.21 ± 0.61
2944.7 kPa, Fluid (supercritical or subcritical phases) | 266.58 ± 0.65
2978.3 kPa, Fluid (supercritical or subcritical phases) | 274.33 ± 0.69
2997 kPa, Fluid (supercritical or subcritical phases) | 278.8 ± 0.74
3015.2 kPa, Fluid (supercritical or subcritical phases) | 283.34 ± 0.78
3032.8 kPa, Fluid (supercritical or subcritical phases) | 287.81 ± 0.83
3049.7 kPa, Fluid (supercritical or subcritical phases) | 292.35 ± 0.9
3066.4 kPa, Fluid (supercritical or subcritical phases) | 297.12 ± 1
3119.6 kPa, Fluid (supercritical or subcritical phases) | 313.41 ± 1.1
3140.3 kPa, Fluid (supercritical or subcritical phases) | 320.42 ± 1.1
3159.2 kPa, Fluid (supercritical or subcritical phases) | 327.22 ± 1.2
3176.3 kPa, Fluid (supercritical or subcritical phases) | 333.78 ± 1.2
3193.5 kPa, Fluid (supercritical or subcritical phases) | 340.76 ± 1.3
3209.9 kPa, Fluid (supercritical or subcritical phases) | 347.93 ± 1.4
3229.3 kPa, Fluid (supercritical or subcritical phases) | 357.01 ± 1.5
3246.9 kPa, Fluid (supercritical or subcritical phases) | 366.07 ± 1.6
3263.4 kPa, Fluid (supercritical or subcritical phases) | 375.24 ± 1.8
3285.9 kPa, Fluid (supercritical or subcritical phases) | 389.23 ± 2
3305.8 kPa, Fluid (supercritical or subcritical phases) | 403.5 ± 2.5
3341.5 kPa, Fluid (supercritical or subcritical phases) | 436.07 ± 3
3360.9 kPa, Fluid (supercritical or subcritical phases) | 459.89 ± 8
3377.9 kPa, Fluid (supercritical or subcritical phases) | 530.57 ± 10
3394.4 kPa, Fluid (supercritical or subcritical phases) | 567.77 ± 6.8
3410.4 kPa, Fluid (supercritical or subcritical phases) | 601.27 ± 6.3
3426.7 kPa, Fluid (supercritical or subcritical phases) | 633.69 ± 5
3445.3 kPa, Fluid (supercritical or subcritical phases) | 659.79 ± 4
3463.4 kPa, Fluid (supercritical or subcritical phases) | 682.18 ± 3.6
3480.7 kPa, Fluid (supercritical or subcritical phases) | 701.66 ± 3
3498.4 kPa, Fluid (supercritical or subcritical phases) | 717.14 ± 2.6
4505.3 kPa, Fluid (supercritical or subcritical phases) | 920.24 ± 0.99
4525.6 kPa, Fluid (supercritical or subcritical phases) | 921.9 ± 0.99
4552.8 kPa, Fluid (supercritical or subcritical phases) | 924.12 ± 1
4579.3 kPa, Fluid (supercritical or subcritical phases) | 926.3 ± 1
4626.5 kPa, Fluid (supercritical or subcritical phases) | 929.99 ± 1
4646.5 kPa, Fluid (supercritical or subcritical phases) | 931.47 ± 1
4666.9 kPa, Fluid (supercritical or subcritical phases) | 932.99 ± 1
4687.6 kPa, Fluid (supercritical or subcritical phases) | 934.6 ± 1
4707.8 kPa, Fluid (supercritical or subcritical phases) | 936.1 ± 1
4762.6 kPa, Liquid | 939.84 ± 1.1
4784.8 kPa, Liquid | 941.44 ± 1.1
4810.7 kPa, Liquid | 943.09 ± 1.1
4836.8 kPa, Liquid | 944.88 ± 1.1
4878.2 kPa, Liquid | 947.51 ± 1.1
4899.5 kPa, Liquid | 948.95 ± 1.1
4921.9 kPa, Liquid | 950.41 ± 1.1
4942.5 kPa, Liquid | 951.63 ± 1.1
4962.8 kPa, Liquid | 952.76 ± 1.1
4983.6 kPa, Liquid | 954.01 ± 1.1
5010.6 kPa, Liquid | 955.79 ± 1.1
5047.3 kPa, Liquid | 957.89 ± 1.1
